Data as given in PMC6712002, “Comprehensive in vitro characterization of PD-L1 small molecule inhibitors” (Scientific Reports, 2019).
“Also recorded” adds a separate entry of the source. Bridge positions count the residues as written; N and C are the ends. Square brackets hold non-standard residues; d marks the D form. Peptide text beside a SMILES is read from it. NMeNle = CCCC[C@H](NC)C(=O)O; NMeA = CN[C@@H](C)C(=O)O

Legend:
PD-L1 [1] = molecular target: T1, PD-L1 (Homo sapiens, UniProt Q9NZQ7); test: 1D NMR STD and WaterLOGSY binding; conditions: 12 µM PD-L1, 200 µM compound
T1 construct: human PD-L1 (residues 18–134) was cloned into pET21b vector; made in house
Protocol: In addition, we also employed 1D NMR-based methods, saturation transfer difference (STD) and WaterLOGSY techniques, to unambiguously rule-out the binding of Aurigene-1 to PD-L1 protein. STD and WaterLOGSY are popular ligand-based approaches to detect the binding of protein-protein inhibitors.
NMR samples contained 12 µM of protein, 200 µM of compound in 1x PBS (phosphate-buffered saline buffer, pH 7.5) and 0.25 mM 2,2-dimethyl-2-silapentane-5-sulfonate-d6 sodium salt (DSS-d6) as an NMR internal reference in 95/5% H2O/D2O or 100% D2O. […] NMR spectroscopy was performed at the Nanuc NMR Centre on a 2.2 K pumped-800 MHz Oxford magnet updated to a Bruker Neo-Advance IV console equipped with a 5 mm cryoprobe and SampleJet robotics.
Fig. S3: STD and WaterLOGSY experiments of PD-L1 binding to Aurigene-1. Blue - 1D spectrum of Aurigene-1, Red and Green -STD and WaterLOGSY spectra respectively of 12 μM of PD-L1 with 200 μM of Aurigene-1

PD-L1 [2] = molecular target: T1, PD-L1; test: Microscale thermophoresis (MST) binding to labeled PD-L1; conditions: labeled PD-L1 60 nM
[3] = test system: peripheral blood mononuclear cells (PBMCs); format: cell-based, human
mouse splenocytes = test system: mouse splenocytes; set-up: method as in earlier work; conditions: CFSE proliferation assay with recombinant PD-L1; cited from earlier work
PD-1/PD-L1 binding [4] = molecular target: T2, PD-1/PD-L1 binding (Homo sapiens, UniProt Q9NZQ7); test: PD-1/PD-L1 ELISA competition assay, reverse configuration (PD-1 coated, biotinylated PD-L1); format: biochemical; conditions: biotin tagged PD-L1
Target sequence in this assay (Q9NZQ7 19-238 limits assumed): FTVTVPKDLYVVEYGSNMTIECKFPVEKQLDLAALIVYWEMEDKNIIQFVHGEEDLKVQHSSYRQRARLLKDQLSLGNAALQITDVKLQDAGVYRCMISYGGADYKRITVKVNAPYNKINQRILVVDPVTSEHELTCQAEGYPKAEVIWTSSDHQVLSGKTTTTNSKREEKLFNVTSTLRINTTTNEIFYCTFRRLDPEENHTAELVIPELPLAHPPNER

[5] = test system: PD-1/NFAT reporter Jurkat cells co-cultured with TCR activator/PD-L1-CHO cells; test: Bioluminescent PD-1/PD-L1 cell-based assay (NFAT luciferase reporter)
human PD-1 protein = human PD-1 protein (Homo sapiens, UniProt Q15116); test: DSF of PD-1; format: binding
Fc-PD-L1 = Fc-PD-L1 (Homo sapiens, UniProt Q9NZQ7); test: SPR binding to captured Fc-PD-L1; conditions: Fc-PD-L1 captured on Protein A chip, 25 °C
PD-L1 [6] = molecular target: T1, PD-L1; test: Differential scanning fluorimetry (DSF) of PD-L1; format: binding; conditions: PD-L1 10 µM, compound 50 µM
HepG2 cells = test: HepG2 cell viability, CCK-8 assay; format: cell-based, human; conditions: HepG2, 24 h; for effect on cell viability: various concentrations tested; for concentration significantly reducing cell viability / concentration without significant effect on cell viability: CCK-8
Protocol: We also evaluated the acute cytotoxicity of the BMS and Aurigene compounds by testing the effects of compound treatment on the viability of HepG2 cell line. […] The purpose of using HepG2 cells, thus, would allow for evaluation of the parent molecules and potential metabolites for cytotoxicity. The cells were treated with the compounds for 24 h and then the cell viability was assessed by the CCK-8 assay (Fig. 7C).
The acute cytotoxicity of the test compounds was also evaluated by administering the test compounds to human hepatoma (HepG2) cells and assessing their viability (metabolic viability) using the CCK-8 assay (based on WST-8). HepG2 cells are commonly used in the early screening stages for new chemical entities, and the CCK-8 assay has been well established as a sensitive and reliable indicator for cellular metabolic activity (viability) for this purpose. HepG2 cells were obtained from ATCC (HB-8065; Manassas, VA) and maintained in DMEM culture medium in a water-jacketed incubator (5% CO2, 37 °C). […] At this time point, cells were treated with WST-8 based on the manufacturer’s protocol (CCK-8 kit, Dojindo Molecular Technologies, Rockville, MD). Cell viability calculations were also carried out according to the manufacturer’s protocol, which included accounting for potential interference from test compounds, and comparisons to appropriate controls. GraphPad Prism was used for data analysis and graphical representation.

Jurkat cells = test: Jurkat cell viability, CellTiter-Glo; format: cell-based; conditions: 24 h; for effect on cell viability: concentrations tested; for concentration significantly decreasing cell viability: vs DMSO control
PD-1/PD-L1 binding [7] = molecular target: T2, PD-1/PD-L1 binding; test: PD-1/PD-L1 ELISA competition assay (PD-L1 coated, biotinylated PD-1); format: biochemical; set-up: purchased R&D Systems (Fc-PD-L1); Acro Biosystems (biotinylated PD-1)
Target sequence in this assay (Q9NZQ7 19-239 limits assumed): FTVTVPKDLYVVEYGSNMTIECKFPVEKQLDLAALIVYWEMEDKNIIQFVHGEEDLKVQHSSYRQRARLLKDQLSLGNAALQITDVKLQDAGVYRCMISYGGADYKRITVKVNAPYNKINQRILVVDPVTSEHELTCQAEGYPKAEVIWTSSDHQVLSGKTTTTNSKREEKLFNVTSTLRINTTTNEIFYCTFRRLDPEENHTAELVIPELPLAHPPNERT

CHO cells = test: CHO cell viability, CellTiter-Glo; conditions: 24 h; for concentration significantly reducing cell viability: vs DMSO control
[8] = test system: PD-1 negative Jurkat T cells; test: Counter-screen NFAT luciferase reporter in PD-1 negative Jurkat T cells; format: cell-based; conditions: 24.5 μM and 49 μM
Fc-B7-1 = molecular target: T3, Fc-B7-1 (Homo sapiens, UniProt P33681); test: SPR binding to captured Fc-B7-1 (specificity)
T3 sequence (P33681 35-242 limits assumed): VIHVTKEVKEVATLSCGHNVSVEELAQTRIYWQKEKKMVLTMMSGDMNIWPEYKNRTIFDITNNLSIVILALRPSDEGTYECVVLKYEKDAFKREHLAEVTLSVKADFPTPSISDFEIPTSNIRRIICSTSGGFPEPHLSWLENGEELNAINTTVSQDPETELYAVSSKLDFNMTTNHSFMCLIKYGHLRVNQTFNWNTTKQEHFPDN

PD-1/PD-L1 = conditions: read-out: IC50 (HTRF); original disclosure; cited from earlier work
PD-1/PD-L1 interface = PD-1/PD-L1 interface (Homo sapiens, UniProt Q9NZQ7); test: Binding to the PD-1/PD-L1 interface (method not given)
[9] = test system: peripheral blood mononuclear cells (PBMCs); test: IFN-γ production by SEB-stimulated PBMCs (ELISA); format: cell-based, human

T1 sequence (Q9NZQ7 18-134): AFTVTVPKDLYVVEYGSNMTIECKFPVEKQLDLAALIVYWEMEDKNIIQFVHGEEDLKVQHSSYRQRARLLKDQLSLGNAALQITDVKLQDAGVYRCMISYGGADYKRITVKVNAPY
Sequence of human PD-1 protein (Q15116 25-288): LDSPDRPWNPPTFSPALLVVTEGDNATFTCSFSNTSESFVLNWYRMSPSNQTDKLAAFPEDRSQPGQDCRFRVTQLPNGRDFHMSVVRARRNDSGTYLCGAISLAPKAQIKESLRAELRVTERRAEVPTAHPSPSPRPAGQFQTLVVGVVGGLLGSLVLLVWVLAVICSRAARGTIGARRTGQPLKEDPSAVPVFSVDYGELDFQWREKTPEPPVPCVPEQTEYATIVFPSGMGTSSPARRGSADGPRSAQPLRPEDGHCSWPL
Sequence of PD-1/PD-L1 interface (Q9NZQ7 19-290): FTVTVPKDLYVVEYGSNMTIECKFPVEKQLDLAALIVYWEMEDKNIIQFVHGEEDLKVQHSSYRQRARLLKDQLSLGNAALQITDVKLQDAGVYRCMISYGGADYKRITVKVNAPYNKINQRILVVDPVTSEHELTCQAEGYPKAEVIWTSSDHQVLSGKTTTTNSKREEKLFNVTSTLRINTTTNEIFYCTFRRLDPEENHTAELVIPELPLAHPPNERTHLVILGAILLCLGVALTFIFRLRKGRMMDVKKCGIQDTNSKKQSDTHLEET
Sequence of Fc-PD-L1 (Q9NZQ7 19-238 limits assumed): as the sequence (Q9NZQ7 19-238 limits assumed) above

For `CC(O)[C@H](NC(=O)N[C@@H](CC(N)=O)c1nc([C@@H](N)CO)no1)C(=O)O` (some centres unmarked) [Aurigene-1], the “binding to PD-L1 (STD, WaterLOGSY NMR)” value (PD-L1 [1]) was “does not bind to PD-L1 protein”, the “binding to PD-L1 (MST fluorescence response)” value (PD-L1 [2]) was “no change in fluorescence” and the “effect on IL-2 production” value [3] was “cannot enhance IL-2 production”. The “rescue of mouse splenocyte proliferation” value (mouse splenocytes) was 97%, the “inhibition of PD-1/PD-L1 binding, reverse configuration” value (PD-1/PD-L1 binding [4]) was “did not show inhibition of PD-1/PD-L1 binding” and the NFAT activity ([5]; 55.5 μM, 27.8 μM, 13.9 μM, 2.8 μM and 1.4 μM) was “none of these concentrations facilitated NFAT activity”. The “thermal stability of PD-1 protein” value (human PD-1 protein) was “did not increase the thermal stability of PD-1 protein; also recorded: did not induce thermal stability to the human PD-1 protein”, the “Rmax (maximum binding response)” value (Fc-PD-L1) was 0.78 ± 0.36 RU and the “shift of Tm of PD-L1” value (PD-L1 [6]) was 0.7 ± 0.1 °C. The “effect on cell viability” value (HepG2 cells) was “did not show any effects on the cell viability”, the “effect on cell viability” value (Jurkat cells) was “did not show any effect on the cell viability” and the “inhibition of PD-1/PD-L1 binding” value (PD-1/PD-L1 binding [7]; 7.8 µM to 500 µM) was “did not inhibit the PD-1/PD-L1 binding”.
For `COc1cc(OCc2cccc(-c3ccccc3)c2C)cc(OC)c1CNCCO` [BMS-103], the “IL-2 production vs positive control” value [3] was “significantly lower levels of IL-2 than the positive control”, the “concentration significantly reducing cell viability” value (CHO cells) was no less than 12.2 µM and the “luminescence of PD-1 negative Jurkat cells” value [8] was “substantially low”. The “concentration significantly reducing cell viability” value (HepG2 cells) was no less than 12.2 µM, the “concentration without significant effect on cell viability” value (HepG2 cells) was “up to 2.4 µM” and the “concentration completely abolishing cell viability” value (Jurkat cells) was no less than 2.4 µM. The “concentration significantly decreasing cell viability” value (Jurkat cells) was 0.4 µM and the “binding with captured Fc-B7-1” value (Fc-B7-1) was “None of the BMS inhibitors (BMSpep-57, BMS-103 and BMS-142) showed binding”.
For `COc1cc(OCc2cccc(-c3ccccc3)c2C#N)cc(OC)c1CNCCO` [BMS-142], the IC50 (PD-1/PD-L1) is given as 0.006 to 0.1 µM, the “NFAT activity vs cells only” value ([5]; 12.3 μM, 2.4 μM and […]) is given as “no change in NFAT activity” and the “NFAT activity (interaction with PD-1/PD-L1)” value ([5]; 24 µM and 48 µM) is given as “sometimes interacted weakly with PD-1/PD-L1, although this was not statistically significant”. The “concentration without any effect on cell viability” value (CHO cells) was “up to 2.4 µM”, the “concentration significantly reducing cell viability” value (CHO cells) was no less than 12 µM and the “concentration significantly reducing cell viability” value (HepG2 cells) was no less than 48 µM. The “concentration without any effect on cell viability” value (Jurkat cells) was “up to 2.4 µM”, the “concentration significantly decreasing cell viability” value (Jurkat cells) was no less than 12 µM and the “binding with captured Fc-B7-1” value (Fc-B7-1) was “None of the BMS inhibitors (BMSpep-57, BMS-103 and BMS-142) showed binding”.
For `CCCC[C@H]1C(=O)N(C)[C@@H](CCCC)C(=O)N[C@@H](CCCNC(=N)N)C(=O)N[C@H](C(=O)NCC(N)=O)CSCC(=O)N[C@@H](Cc2ccccc2)C(=O)N(C)[C@@H](C)C(=O)N[C@@H](CC(N)=O)C(=O)N2CCC[C@H]2C(=O)N[C@@H](Cc2cnc[nH]2)C(=O)N[C@@H](CC(C)C)C(=O)N[C@@H](CO)C(=O)N[C@@H](Cc2c[nH]c3ccccc23)C(=O)N[C@@H](CO)C(=O)N[C@@H](Cc2c[nH]c3ccccc23)C(=O)N1C` [BMSpep-57] ({CH2CO}-F[NMeA]NPHLSWSW[NMeNle][NMeNle]RCG-NH2; thioether N-14), the “effect on cell viability” value (HepG2 cells) was “did not show any effects on the cell viability” and the “effect on cell viability” value (Jurkat cells) was “did not show any effect on the cell viability”.
Work on `CCCC[C@H]1C(=O)N(C)[C@@H](CCCC)C(=O)N[C@@H](CCCNC(=N)N)C(=O)N[C@H](C(=O)NCC(N)=O)CSCC(=O)N[C@@H](Cc2ccccc2)C(=O)N(C)[C@@H](C)C(=O)N[C@@H](CC(N)=O)C(=O)N2CCC[C@H]2C(=O)N[C@@H](Cc2c[nH]cn2)C(=O)N[C@@H](CC(C)C)C(=O)N[C@@H](CO)C(=O)N[C@@H](Cc2c[nH]c3ccccc23)C(=O)N[C@@H](CO)C(=O)N[C@@H](Cc2c[nH]c3ccccc23)C(=O)N1C` [BMSpep-57] ({CH2CO}-F[NMeA]NPHLSWSW[NMeNle][NMeNle]RCG-NH2; thioether N-14; N-terminus and C-terminus assumed) yielded an inhibition at 0.3 µM (PD-1/PD-L1 binding [7]; at 300 nM) of 98.1%.
In the case of `Cc1ccc2ccccc2c1CN1CCN(c2c([N+](=O)[O-])c(=O)n(C)c3ccccc23)CC1` [Compound A], the “binding to the PD-1/PD-L1 interface” value (PD-1/PD-L1 interface) is reported as “did not bind to the PD-1/PD-L1 interface”, the “fold IFN-γ production vs untreated cells” value [9] is reported as “approximately 1.2 fold” and the “concentration without significant effect on cell viability” value (HepG2 cells) is reported as no more than 90 µM.
